# Results taken from patent US4450269A, “Mono-5-substituted-3-chloro-4H-1,2,6-thiadiazin-4-one antifungal agents” (FMC Corporation, priority 1980, dated 1984).
# Structures can show the parent of a compound that is named as a salt.
# Test system: Pythium ultimum
# Assay: Mycelial growth test
# Type: cell-based
# Conditions: PU; for inhibition at 5 ppm / inhibition at 10 ppm / inhibition at 20 ppm / inhibition at 40 ppm: Globisporangium ultimum, 72 h, read-out: Percent Fungus Growth Inhibition; for Percent Fungus Growth Inhibition: 72 hours
Compound,inhibition at 5 ppm (5 ppm) [%],inhibition at 10 ppm (10 ppm) [%],inhibition at 20 ppm (20 ppm) [%],inhibition at 40 ppm (40 ppm) [%],Percent Fungus Growth Inhibition (5 ppm) [%],Percent Fungus Growth Inhibition (10 ppm) [%],Percent Fungus Growth Inhibition (20 ppm) [%],Percent Fungus Growth Inhibition (40 ppm) [%],"Percent Fungus Growth Inhibition (20 ppm, hydrochloride) [%]","Percent Fungus Growth Inhibition (40 ppm, hydrochloride) [%]"
"O=c1c(Cl)nsnc1Oc1ccc([N+](=O)[O-])cc1 [Compound 9, 3-chloro-5-(4-nitrophenoxy)-4H--1,2,6-thiadiazin-4-one]",0,80,71,100,–,–,–,–,–,–
"Cc1cc(Cl)ccc1Oc1nsnc(Cl)c1=O [Compound 55, 3-chloro-5-(4-chloro-2-methylphenoxy)-4H--1,2,6-thiadiazin-4-one]",42,64,33,47,–,–,–,–,–,–
"O=c1c(Cl)nsnc1Oc1cccc2ccccc12 [Compound 32, 3-chloro-5(1-naphthoxy)-4H-1,2,6-thiadiazin-4-one]",73,73,100,100,–,–,–,–,–,–
"Cc1cc(C)cc(Oc2nsnc(Cl)c2=O)c1 [Compound 25, 3-chloro-5-(3,5-dimethylphenoxy)-4H--1,2,6-thiadiazin-4-one]",0,47,100,100,–,–,–,–,–,–
"O=c1c(Cl)nsnc1Oc1cccc(Cl)c1 [Compound 13, 3-chloro-5-(3-chlorophenoxy)-4H--1,2,6-thiadiazin-4-one]",31,73,89,100,–,–,–,–,–,–
"O=C(O)Cc1ccccc1Oc1nsnc(Cl)c1=O [Compound 45, 3-(2-carboxymethylphenoxy)-5-chloro-4H--1,2,6-thiadiazin-4-one]",0,42,69,100,–,–,–,–,–,–
"CSc1ccc(Oc2nsnc(Cl)c2=O)cc1 [Compound 39, 3-chloro-5-[(4-methylthio)phenoxy]-4H-1,2,6,-thiadiazin-4-one]",0,24,100,100,–,–,–,–,–,–
"O=c1c(Cl)nsnc1Oc1ccc(F)cc1 [Compound 11, 3-chloro-5-(4-fluorophenoxy)-4H--1,2,6-thiadiazin-4-one]",0,18,82,100,–,–,–,–,–,–
"Cc1cc(Oc2nsnc(Cl)c2=O)ccc1Cl [Compound 54, 3-chloro-5-(4-chloro-3-methylphenoxy)-4H--1,2,6-thiadiazin-4-one]",42,60,71,87,–,–,–,–,–,–
"3-chloro-5-(bromophenoxy)-4H-1,2,6-thiadiazin-4-one [Compound 33]",–,–,–,–,69,87,96,100,–,–
"COc1cc(Oc2nsnc(Cl)c2=O)cc(OC)c1C(C)=O [Compound 61, 3-[(4-acetyl-3,5-dimethoxy)-phenoxy]-5-chloro-4H--1,2,6-thiadiazin-4-one]",31,42,100,100,–,–,–,–,–,–
"Cc1ccccc1Oc1nsnc(Cl)c1=O [Compound 22, 3-chloro-5-(2-methylphenoxy)-4H--1,2,6-thiadiazin-4-one]",20,64,96,100,–,–,–,–,–,–
"O=c1c(Cl)nsnc1Oc1cc(Cl)cc(Cl)c1 [Compound 20, 3-chloro-5-(3,5-dichlorophenoxy)-4H--1,2,6-thiadiazin-4-one]",53,91,91,100,–,–,–,–,–,–
"O=c1c(Cl)nsnc1Oc1ccccc1Cl [Compound 14, 3-chloro-5-(2-chlorophenoxy)-4H--1,2,6-thiadiazin-4-one]",31,53,100,100,–,–,–,–,–,–
"Nc1ccc(Oc2nsnc(Cl)c2=O)cc1 [Compound 27, 5-(4-aminophenoxy)-3-chloro-4H--1,2,6-thiadiazine-4-one hydrochloride]",–,–,–,–,–,–,–,–,0,80
"O=c1c(Cl)nsnc1Oc1ccccc1 [Compound 2, 3-chloro-5-phenoxy-4H--1,2,6-thiadiazin-4-one]",0,42,100,100,–,–,–,–,–,–
"Cc1cc(Cl)c(Oc2nsnc(Cl)c2=O)cc1C [Compound 58, 3-chloro-5-[(2-chloro-4,5-dimethyl)phenoxy]-4H--1,2,6-thiadiazin-4-one]",13,24,0,13,–,–,–,–,–,–
"CC(=O)Nc1cccc(Oc2nsnc(Cl)c2=O)c1 [Compound 42, 3-[(3-N--acetylamino)-phenoxy]-5-chloro-4H--1,2,6-thiadiazin-4-one]",0,42,100,100,–,–,–,–,–,–
"O=c1c(Cl)nsnc1Oc1ccccc1Br [Compound 34, 3-chloro-5-(2-bromophenoxy)-4H-1,2,6,-thiadiazin-4-one]",0,64,87,100,–,–,–,–,–,–
"C[S+]([O-])c1ccc(Oc2nsnc(Cl)c2=O)cc1 (centres unmarked) [Compound 40, 3-chloro-5-[(4-methylsulfinyl)phenoxy]-4H-1,2,6,-thiadiazin-4-one]",0,100,100,100,–,–,–,–,–,–

Compound,inhibition at 5 ppm (5 ppm) [%],inhibition at 10 ppm (10 ppm) [%],inhibition at 20 ppm (20 ppm) [%],inhibition at 40 ppm (40 ppm) [%],Percent Fungus Growth Inhibition (5 ppm) [%],Percent Fungus Growth Inhibition (10 ppm) [%],Percent Fungus Growth Inhibition (20 ppm) [%],Percent Fungus Growth Inhibition (40 ppm) [%],"Percent Fungus Growth Inhibition (20 ppm, hydrochloride) [%]","Percent Fungus Growth Inhibition (40 ppm, hydrochloride) [%]"
"O=c1c(Cl)nsnc1Oc1cccc(Cl)c1Cl [Compound 19, 3-chloro-5-(2,3-dichlorophenoxy)-4H--1,2,6-thiadiazin-4-one]",20,80,100,100,–,–,–,–,–,–
"Cc1ccc(Oc2nsnc(Cl)c2=O)cc1 [Compound 3, 3-chloro-5-(4-methylphenoxy)-4H--1,2,6-thiadiazin-4-one]",20,100,100,100,–,–,–,–,–,–
"O=c1c(Cl)nsnc1Oc1cccc(C(F)(F)F)c1 [Compound 44, 3-chloro-5-[(3-trifluoromethyl)phenoxy]-4H--1,2,6-thiadiazin-4-one]",100,100,100,100,–,–,–,–,–,–
"CC(=O)c1ccc(Oc2nsnc(Cl)c2=O)cc1 [Compound 47, 3-(4-acetylphenoxy)-5-chloro-4H--1,2,6-thiadiazin-4-one]",71,100,100,100,–,–,–,–,–,–
"CCOC(=O)c1ccc(Oc2nsnc(Cl)c2=O)cc1 [Compound 7, 3-chloro-5-(4-ethoxycarbonylphenoxy)-4H--1,2,6-thiadiazin-4-one]",11,29,80,100,–,–,–,–,–,–
"CC(=O)Nc1ccccc1Oc1nsnc(Cl)c1=O [Compound 43, 3-[(2-acetylamino)-phenoxy]-5-chloro-4H--1,2,6-thiadiazin-4-one]",0,0,0,0,–,–,–,–,–,–
"O=c1c(Cl)nsnc1Oc1c(Cl)cccc1Cl [Compound 18, 3-chloro-5-(2,6-dichlorophenoxy)-4H--1,2,6-thiadiazin-4-one]",13,60,100,100,–,–,–,–,–,–
"Cc1ccc(Oc2nsnc(Cl)c2=O)c(C)c1 [Compound 23, 3-chloro-5-(2,4-dimethylphenoxy)-4H--1,2,6-thiadiazin-4-one]",62,69,71,100,–,–,–,–,–,–
"CC(C)(C)c1ccc(Oc2nsnc(Cl)c2=O)cc1 [Compound 4, 3-chloro-5-(4-tert-butylphnoxy)-4H--1,2,6-thiadiazin-4-one]",0,20,0,0,–,–,–,–,–,–
"N#Cc1ccc(Oc2nsnc(Cl)c2=O)cc1 [Compound 10, 3-chloro-5-(4-cyanophenoxy)-4H--1,2,6-thiadiazin-4-one]",11,24,42,64,–,–,–,–,–,–
"O=c1c(Cl)nsnc1Oc1ccc(Cl)c(Cl)c1 [Compound 16, 3-chloro-5-(3,4-dichlorophenoxy)-4H--1,2,6-thiadiazin-4-one]",7,11,47,56,–,–,–,–,–,–
"Cc1cc(Oc2nsnc(Cl)c2=O)cc(C)c1Cl [Compound 59, 3-chloro-5-[(4-chloro-3,5-dimethyl)phenoxy]-4H--1,2,6-thiadiazin-4-one]",0,0,0,29,–,–,–,–,–,–
"CC(=O)Nc1ccc(Oc2nsnc(Cl)c2=O)cc1 [Compound 8, 5-(4-acetylaminophenoxy)-3-chloro-4H--1,2,6-thiadiazin-4-one]",0,100,100,100,–,–,–,–,–,–
"CCCCOc1ccc(Oc2nsnc(Cl)c2=O)cc1 [Compound 6, 3-chloro-5-(4-n-butoxyphenoxy)-4H--1,2,6-thiadiazin-4-one]",0,0,0,22,–,–,–,–,–,–
"CNC(=O)Nc1ccc(Oc2nsnc(Cl)c2=O)cc1 [Compound 28, 3-chloro-5-[4-(3-methylureido)-phenoxy]-4H--1,2,6-thiadiazin-4-one]",0,80,91,100,–,–,–,–,–,–
"O=c1c(Cl)nsnc1Oc1ccc(Cl)cc1Cl [Compound 17, 3-chloro-5-(2,4-dichlorophenoxy)-4H--1,2,6-thiadiazin-4-one]",42,80,100,100,–,–,–,–,–,–
"O=c1c(Cl)nsnc1Oc1c(Cl)cc(Cl)cc1Cl [Compound 30, 3-chloro-5-(2,4,6-trichlorophenoxy)-4H--1,2,6-thiadiazin-4-one]",20,71,96,100,–,–,–,–,–,–
"CS(=O)(=O)c1ccc(Oc2nsnc(Cl)c2=O)cc1 [Compound 41, 3-chloro-5-[(4-methylsulfonyl)phenoxy]-4H--1,2,6-thiadiazin-4-one]",0,100,100,100,–,–,–,–,–,–
"COc1ccc(Oc2nsnc(Cl)c2=O)cc1 [Compound 5, 3-chloro-5-(4-methoxyphenoxy)4H--1,2,6-thiadiazin-4-one]",0,42,76,100,–,–,–,–,–,–
"Cc1ccc(Cl)c(Oc2nsnc(Cl)c2=O)c1 [Compound 56, 3-chloro-5-[(2-chloro-5-methyl)phenoxy]-4H--1,2,6-thiadiazin-4-one]",0,67,100,100,–,–,–,–,–,–
